Data from publication PMC10933920, “Synthesis and Anti-Inflammatory Activity of Ferulic Acid-Sesquiterpene Lactone Hybrids” (Molecules, 2024).
Values after ≈ are worked out from the molar mass of the structure shown. “Also recorded” adds a separate entry of the source.

Experiments:
[1] = tested on: BLM-induced acute lung injury in C57BL/6J mice; test: Bleomycin-induced acute lung injury model; type: in vivo; details: compound 6 10 mg/kg i.p. daily for 14 days
Experimental: To further confirm the anti-inflammation effect of compound 6 in vivo, we made the acute-lung-injury model in C57/6j mice using bleomycin. […] To further investigate the protective effect of 6 by BLM-induced ALI, the pathological changes in lung tissues were studied (Figure 5).
C57BL/6J mice (male) were purchased from Vital River Laboratories (Beijing, China). All procedures were conducted according to the Nankai University Guidelines on Animal Care, and the experimental protocol was approved by the Institutional Animal Protection Committee of the Nankai University (Tianjing, China, NO. 2022-SYDWLL-000342). Animals were sheltered under standard conditions with food and water provided ad libitum. Experiments were conducted on 8-week-old male mice, randomly divided into 4 groups: Control (Con), ALI (bleomycin), Dex (dexamethasone) and compound 6. For bleomycin-induced lung injury, mice were sedated, and a single dose of intratracheal bleomycin (4 mg/kg; Selleckchem, Houston, TX, USA) in sterile PBS. 6 was administered daily for 14 days via intraperitoneal injections (i.p) (100 μL/mouse of […] 6 in PBS). Dexamethasone (2 mg/kg) was administered orally. The mice were monitored and their weight was measured daily. After 14 days, the mice were killed with anesthetic overdose and exsanguinated by cutting the abdominal aorta before the collection of lungs.
Body weight variations were calculated from the measured weights at each time point (days 1–14), including before the sacrifice of the mice reaching the endpoints. To avoid a potential bias by studying the animals with the better outcomes, animals reaching endpoints were included in the calculation of the weight variation and survival rates.
Figure 4 Effect of compound 6 on body weight and survival after bleomycin-induced acute lung injury in mice. After bleomycin (4 mg/kg, 25 μL), mice were treated (i.p) daily with compound 6 (10 mg/kg, 100 μL) for 14 days. Body weight variations ((A), n = 12) and percentage (%) of mouse survival ((B), n = 5–12) were compared between the four groups. (Values are means ± SEM, ** p < 0.01). […]

[2] = tested on: TNF-α and IL-6 release from LPS-stimulated RAW264.7 cells; test: ELISA of pro-inflammatory cytokine protein levels in culture supernatant; type: cell-based, Mouse; details: RAW264.7 cells pre-treated 6 h, LPS 24 h
[3] = Release of prodrug into active drug in HEPES buffer; type: physicochemical; details: HEPES buffer pH 7.4, 37 °C, HPLC; read-out: T1/2 (conversion of prodrug 6 into compound 3) (converted)
Experimental: The Michael addition reaction has emerged as an effective synthetic strategy to improve the water solubility and pharmaceutical efficacy of active drug compounds [34]. […] In addition, the use of Michael addition products can also serve to modulate the release rate of active drugs, thereby enabling better control over the pharmacological effects of such compounds. Thus, the experiment of converting the prodrug compound (6) into compound (3) was evaluated in a HEPES buffer solution with a pH of 7.4. Compound 6 rapidly releases compound 3 under these conditions. (Figure 6, T1/2 = 2 h).
A total of 10 mg of compound 6 was dissolved in 10 mL MeCN. A 0.5 mL volume of compound 6 solution was placed in 49.5 mL of HEPES at pH 7.4. The tubes were then incubated in a bath incubator at 37 °C. Samples were removed after 10 s, and the concentration of compound 6 and 3 was analyzed by HPLC.
Figure 6 The stability of compound 6 in pH7.4 HEPES buffer.

[4] = Aqueous solubility measurement; type: physicochemical; details: for water solubility (in words): pH 7.0; for solubility: thermodynamic from solid, deionized water, pH = 7.0, at least in duplicate, read-out: Aqueous Solubility IC50
Experimental: PTL, MCL and compounds 1–6 (0.1, 1, 10 mg) were dissolved in deionized water (pH = 7.0) until the solution was clear. The assays were measured at least in duplicate.

[5] = tested on: RAW264.7 cells; test: CCK-8 cell viability (cytotoxicity) assay; type: cell-based, Mouse; details: for IC50: RAW264.7 cells, CCK-8, 24 h incubation, means of three independent experiments
Experimental: CCK-8 Cell Proliferation was used to confirm the non-cytotoxic dose of those derivatives in RAW264.7 cells. However, IC50 values of those compounds show visible difference in vitro (Table 1). Considering the safety of compound 6 in RAW264.7 cells, a follow-up experiment was carried out at the concentration of 2 μM.
The toxicity of those compounds was determined by the CCK-8 assay. RAW264.7 cells were seeded in a 96-well plate at a density of 2 × 10^5/mL and a volume of 100 μL/well. After incubation for 12 h at 37 °C, the cells were then incubated with compounds at concentrations of 1.25, 2.5, 5, 10, 20, 40 and 80 μM for 24 h, followed by the addition of 10 μL CCK-8 solution to each well, and the plates were further incubated for 2 h at 37 °C. The absorbance at a wavelength of 450 nm was measured using a microplate reader (Bio-Rad Laboratories, Inc., Hercules, CA, USA).

[6] = tested on: LPS-induced expression of IL-1β, IL-6 and iNOS in RAW264.7 cells; test: qRT-PCR of pro-inflammatory cytokine gene expression after LPS stimulation; type: cell-based, Mouse; details: RAW264.7 cells pre-treated 2 h, LPS 1 μg/mL 6 h, RT-PCR, 2 μM
From the text: Inflammatory factors, including TNF-α, IL-1β, and IL-6, are involved in and accelerate inflammatory responses during inflammatory progression. In addition, iNOS (Nitric oxide synthase)-derived monocytes contribute to macrophage recruitment in the lung, and pulmonary-derived iNOS is detrimental during acute lung injury. Moreover, observations indicate that inhibiting iNOS can reduce inflammation in the early stages of the bleomycin model of acute lung injury. Therefore, the effective suppression of inflammation is considered an effective marker for the treatment of inflammation. To establish the efficacy of those compounds suppressing inflammatory procession, we tested pro-inflammatory cytokines that are released from the RAW264.7 cells upon LPS stimulation.
Total RNA was isolated using TRIzol reagent (Takara, Ōtsu-shi, Japan) and then transcribed into cDNA using a transcriptor cDNA synthesis kit (TransGen Biotech, Beijing, China) according to the manufacturer’s instructions. Quantitative real-time PCR was performed with TransStart® Green qPCR SuperMix (TransGen Biotech, China). The conditions for the real-time PCR reaction were as follows: 94 °C, 30 s; 94 °C, 5 s; 60 °C, 30 s; 40 cycles. The primers for this research are listed in Supplementary Material Table S1.
Figure 2 Anti-inflammation of 1–6 in RAW264.7 Cells. Expression of proinflammatory cytokines in RAW264.7 cells use RT-PCR. Cells (1 × 10^6 cells/well) were seeded into 6-well plates and then pro-treated with 1–6 for 2 h. Cells were then challenged with LPS (1 μg/mL) or medium alone for 6 h and Total RNA was extracted from cells with Trizol reagent. TNF-α: tumor necrosis factor-α; IL-1β:Interleukin-1β; L-6: Interleukin-6. Data were analyzed by One-Way ANOVA. *: p < 0.05; **: p < 0.01. ns: no significance.

[7] = set-up: method as in PMID 30208745; details: cited from earlier work

SMILES | solubility [4] [µg/mL] | IC50 ([5]; Mus musculus, RAW264.7, 24 h) [µM] | gene expression of pro-inflammatory cytokines (IL-1β, IL-6, iNOS) [6] | also measured
COc1cc(C=CC(=O)OCC2=CCCC3(C)OC3C3OC(=O)C(CN(C)C)C3CC2)ccc1O [Compound 6, ((1aR,7aS,8R,10aS,10bS,E)-8-((dimethylamino)methyl)-1a-methyl-9-oxo-1a,2,3,6,7,7a,8,9,10a,10b-decahydrooxireno[2′,3′:9,10]cyclodeca[1,2-b]furan-5-yl)methyl (E)-3-(4-hydroxy-3-methoxyphenyl)acrylate 2-hydroxypropane-1,2,3-tricarboxylate] | 2500 (≈ 5150 µM) | 6.95 ± 1.09 | comparable activities; also recorded: could significantly reduce inflammation of RAW264.7 cells induced by LPS | survival rate [1]: did not reverse the survival rate; acute lung injury / lung pathology (H&E: inflammatory cell infiltration, edema, alveolar structure) ([1]; 10 mg/kg): reduced inflammatory cell infiltration and edema in lung tissue of mice, and improved alveolar structure; also recorded: ameliorated inflammatory cell infiltration and edema in lung tissue; also recorded: could significantly decrease the acute lung injury induced by bleomycin; body weight loss ([1]; 10 mg/kg): prevented the weight loss significantly; protein levels / release of pro-inflammatory cytokines (TNF-α and) [2]: could also inhibit the release of pro-inflammatory cytokines in vitro; half-life at 10 µg/mL [3]: 2 h; water solubility (in words) [4]: outstanding water solubility; also recorded: significantly improved water solubility; also recorded: good water solubility; also recorded: more soluble than the reference compound 3; decline in cytotoxic effect compared to parent compound 3 ([5]; RAW264.7 cell line, versus compound 3): 2 fold
COc1cc(/C=C/C(=O)O)ccc1O [FA, Ferulic acid] | – | > 100 | – | –
COc1cc(C=CC(=O)NCC2=CCCC3(C)OC3C3OC(=O)C(CN(C)C)C3CC2)ccc1O [Compound 4, (E)-N-(((1aR,7aS,8R,10aS,10bS,E)-8-((dimethylamino)methyl)-1a-methyl-9-oxo-1a,2,3,6,7,7a,8,9,10a,10b-decahydrooxireno[2′,3′:9,10]cyclodeca[1,2-b]furan-5-yl)methyl)-3-(4-hydroxy-3-methoxyphenyl)acrylamide] | < 10 | 38.4 ± 1.14 | neither the amide derivative of FA-PTL hybrid 4 or 5 (the prodrug of 2 containing citric acid) showed anti-inflammation activities | melting point: 132 to 134 °C
COc1cc(/C=C/C(=O)O[C@]2(C)CCC3=C(C)CC[C@@H]4[C@H](OC(=O)[C@H]4CN(C)C)[C@H]32)ccc1O.O=C(O)CC(O)(CC(=O)O)C(=O)O [Compound 5, (3R,3aS,9R,9aS,9bS)-3-((dimethylamino)methyl)-6,9-dimethyl-2-oxo-2,3,3a,4,5,7,8,9,9a,9b-decahydroazuleno[4,5-b]furan-9-yl (E)-3-(4-hydroxy-3-methoxyphenyl)acrylate 2-hydroxypropane-1,2,3-tricarboxylate] | 2500 | 28.8 ± 0.21 | neither the amide derivative of FA-PTL hybrid 4 or 5 (the prodrug of 2 containing citric acid) showed anti-inflammation activities | water solubility (in words) [4]: significantly improved water solubility
C=C1C(=O)OC2C1CCC(COC(=O)C=Cc1ccc(O)c(OC)c1)=CCCC1(C)OC21 [Compound 3, ((1aR,7aS,10aS,10bS,E)-1a-methyl-8-methylene-9-oxo-1a,2,3,6,7,7a,8,9,10a,10b-decahydrooxireno[2′,3′:9,10]cyclodeca[1,2-b]furan-5-yl)methyl (E)-3-(4-hydroxy-3-methoxyphenyl)acrylate] | < 10 | 3.04 ± 0.08 | reduce the gene expression levels of IL-1β, IL-6 and iNOS significantly; also recorded: comparable activities | melting point: 96 to 98 °C
C=C1C(=O)O[C@@H]2C3C(=C(C)CC[C@@H]12)CC[C@@]3(C)OC(=O)/C=C/c1ccc(O)c(OC)c1 (stereo partly drawn) [Compound 1, (3aS,9R,9bS)-6,9-dimethyl-3-methylene-2-oxo-2,3,3a,4,5,7,8,9,9a,9b-decahydroazuleno[4,5-b]furan-9-yl (E)-3-(4-hydroxy-3-methoxyphenyl)acrylate] | < 10 | 6.14 ± 0.09 | reduce the gene expression levels of IL-1β, IL-6 and iNOS significantly; also recorded: comparable activities | –
COc1cc(/C=C/C(=O)O[C@]2(C)CCC3=C(C)CC[C@@H]4[C@H](OC(=O)[C@H]4CN(C)C)[C@H]32)ccc1O [Compound 2, (3R,3aS,9R,9aS,9bS)-3-((dimethylamino)methyl)-6,9-dimethyl-2-oxo-2,3,3a,4,5,7,8,9,9a,9b-decahydroazuleno[4,5-b]furan-9-yl (E)-3-(4-hydroxy-3-methoxyphenyl)acrylate] | < 10 | – | decreased activity compared with compound 1 | IC50 [5]: 19.6 ± 0.21 µM
C=C1C(=O)O[C@H]2[C@H]1CCC(C)=C1CC[C@@](C)(O)[C@@H]12 [MCL, micheliolide, reference compound] | 50 (≈ 201 µM) | 9.03 ± 0.16 | – | –
C=C1C(=O)O[C@H]2[C@H]1CC/C(C)=C/CC[C@@]1(C)O[C@@H]21 [PTL, Parthenolide, reference compound] | 50 (≈ 201 µM) | 5.35 ± 0.06 | – | –
C/C1=C\CC[C@@]2(C)O[C@@H]2[C@H]2OC(=O)[C@H](CN(C)C)[C@@H]2CC1 [DMAPT] | – | – | – | solubility relative to parent compound parthenolide [7]: more than 1000 times
